Data as given in patent US20260088132A1, “CHEMICAL PAINTING” (The Trustees of Columbia University in the City of New York, priority 2023, published 2026).
Structures can show the parent of a compound that is named as a salt.

Tests used:
Type in all cases: cell-based, human
MDA-MB-231 cells [1] = assay: Novelty detection of drug MoA on single-cell Chemical Painting data (LDA, Mahalanobis distance, isolation forest); conditions: test compounds; for Mean score: dynamic range [1, −1], below 0.1 detected as novel; for Outlier %: single-cell data predicted as outliers (novel); for Prediction: MoA predicted as known class or novel
Excerpt: We specifically designed an algorithm for Chemical Painting to identify drugs with novel MoAs, using the dataset and model in drug MoA prediction as an annotated reference. In this algorithm, the first step is to calculate the Mahalanobis distance between single-cell data from test compound and each reference class in the trained LDA model. The class with the minimum distance represents the known drug closest to the test compound. Next, isolation forest, is introduced to determine whether the test compound is novel to the selected known drug class. The prediction output in this step is 1 as inliers (known) and −1 as outliers (novel) for each single-cell data from the test compound. […] Test compound with a mean prediction score below the threshold value is detected as novel.
(§1) Sample preparation for drug-treated cells with labeling. MDA-MB-231 cells were seeded on clean CaF2 substrates with 5×10^4 cells per well in cell culture media (DMEM, 10% FBS, 1% penicillin) overnight. Then the culture media was replaced by ^13C-amino acids DMEM with 50 μM azido-palmitic acid, 50 μM d34 oleic acid, either single drug at its IC50 concentration or drug combinations at chosen concentrations. Drugs were prepared in 100% DMSO and diluted to 0.1% DMSO in labeling media. For the control group, only cell labeling media with 0.1% DMSO was added (without any drugs). Cells were treated for 48 hrs. After that, cells were fixed by 4% PFA at room temperature for 15 min and washed three times with PBS buffer and five times with dd-H2O. The samples were then air-dried before imaging.
(§2) FTIR imaging. Agilent Cary 620 Imaging FTIR equipped with an Agilent 670-IR spectrometer and 128×128-pixels FPA mercury cadmium telluride (MCT) detector was used in the transmission mode. A background spectrum was collected on a clean CaF2 substrate using 128 scans at 8 cm-1 spectral resolution. Cell spectra were recorded using 64-128 scans at 8 cm-1 spectral resolution. A ×25 IR objective (pixel size, 3.3 um, 0.81 numerical aperture (NA)) was used for cell imaging.
Machine learning. The tests of all the machine learning classifiers were performed using Python (Scikit-learn). Specifically, single-cell data was split into 70% training and 30% testing with labels corresponding to drug MoAs. The hyper-parameters of each classifier were carefully tuned using RandomizedSearchCv in Scikit-learn. The performances of these classifiers were evaluated in the testing dataset using accuracy as the main metric. To test the performance of classifiers on batch effects, single-cell data collected from different batches were loaded as another testing dataset. For feature importances of LDA classifier, permutation feature importance (Scikit-learn) was used. The intrinsic feature importance values from random forest classifier were also extracted.
Novelty detection algorithm. In the first step, the Mahalanobis distances between the test compound and each reference class in the annotated dataset were calculated by home-built codes in python. Drug class with minimum distance was selected. Next, isolation forest, which is available in Python, was imported to predict whether single-cell data from the test compound is known (inliers) or novel (outliers) to the selected drug class. The mean of the prediction results from single-cell data is reported as mean prediction score.

MDA-MB-231 cells [2] = assay: Chemical Painting: single-cell metabolic responses by FTIR imaging with three IR-active vibrational probes; conditions: drug at its IC50 concentration, 48 hrs, compared with control
Experimental: The first step is to add the three vibrational probes and the tested drug at its IC50 concentration to the cell culture media and co-cultured for 48 hrs. After that, cells are fixed and air-dried. Then Fourier transformed infrared (FTIR) imaging, a modality of MIR imaging, was performed to collect the full spectral data of cells. The collection speed is around 2 cells/second for human cancer cells with sufficient co-scans (˜64 scans). In the following data analysis, quality test, baseline correction and data normalization were included for data preprocessing (Methods). Next, single-cell segmentation was performed with open-source software CellProfiler to generate masks. These masks can be further used to extract single-cell IR spectrum from the MIR imaging data, forming the single-cell biochemical profile. We then introduced a series of analytical methods for the downstream analysis, including machine learning, novelty detection and statistical methods to map cell phenotypes and identify drug MoAs. Overall, the workflow of Chemical Painting is straightforward in experimental operations and effected in single-cell data analysis, which laid the foundation for this method to reveal valuable insights toward phenotypic profiling and potential drug discovery.
Systematic sensitivity and generalizability evaluation of Chemical Painting toward a broad range of drugs: It remains unknown whether our method has sufficient sensitivity to differentially discriminate cell responses to different drugs. To evaluate its sensitivity we tested 13 drugs belonging to 9 different drug MoAs. These drugs can be separated into two main panels: one consists of drugs that inhibit general metabolism; another one contains drugs targeting specific proteins or interfering with particular metabolic pathways. The single-cell metabolic responses toward different drug treatment were visualized in the 3D scatter plots where x-axis represents saturated FA metabolism (azido-PA/CH2), y-axis represents unsaturated FA metabolism (d34OA/CH2), and z-axis represents protein synthesis (^13C amide I/(^13C amide I+^12C amide I)). The use of ratios is meant for more accurate quantification of metabolic activities. Each dot represents the metabolic responses of an individual cell in the plots.
as §1, §2
Data preprocessing. […]

MDA-MB-231 cells [3] = assay: Cell viability assay (Alamar blue) for drug IC50; conditions: single drug, 48 hrs; for half of the IC50 values: concentration added in combination groups
Excerpt: Another aspect to consider is how to ensure the cells are in a similar state under different categories of drug treatments. To achieve this, we measured the half maximal inhibitory concentration (IC50) of different drugs separately by cell viability assays in 48 hrs, in agreement with the probe culturing time. This method is commonly used in pharmaceutical studies to compare the effect of various products. Besides the experimental operations, data analysis is vital to the obtained large-scale data to map cell phenotypes after drug perturbation. We thus built a complete analytical pipeline for Chemical Painting, including data preprocessing, single-cell segmentation, single-cell biochemical profile extraction and downstream analysis.
Cell viability assay and drug IC50 calculus. The IC50 values of the drugs were determined by Alamar blue assay. Cells were seeded at 10,000 per well in 96-well plates. After 24 h, the cells were washed twice with phosphate buffered saline (PBS) and treated with drugs at different concentrations in cell culture media for 48 hrs. Each drug concentration has 6-8 replicates. After the drug treatments, cells were washed with PBS twice and the cell viability was determined by Alamar blue assay following the manufacturer's protocol (Invitrogen) using plate reader. The IC50 values were determined by fitting the data using a dose response model with variable Hill slope built in Prism.

Molecule	Mean score (MDA-MB-231 cells [1])	Outlier % (MDA-MB-231 cells [1])	Prediction (MDA-MB-231 cells [1])	protein synthesis (13C amide I/(13C amide I+12C amide I)) (MDA-MB-231 cells [2])	saturated FA metabolism (azido-PA/CH2) (MDA-MB-231 cells [2])	unsaturated FA metabolism (d34OA/CH2) (MDA-MB-231 cells [2])	also measured
CCC(=O)CCCCC[C@@H]1NC(=O)[C@H]2CCCCN2C(=O)[C@H]([C@@H](C)CC)NC(=O)[C@H](Cc2cn(OC)c3ccccc23)NC1=O [Apicidin]	−0.5289	76.45%					
COc1cccc2c1C(=O)c1c(O)c3c(c(O)c1C2=O)C[C@@](O)(C(C)=O)C[C@@H]3O[C@H]1C[C@H](N)[C@H](O)[C@H](C)O1 [Daunorubicin, Daunorubicin hydrochloride]		7.515%	DNA intercalation				Mean score (MDA-MB-231 cells [1]; hydrochloride): 0.8497; Mean score (MDA-MB-231 cells [1]; listed as daunorubicin, hydrochloride): high
O=C(c1cc(Cc2n[nH]c(=O)c3ccccc23)ccc1F)N1CCN(C(=O)C2CC2)CC1 [olaparib]				significantly reduced	significantly reduced	significantly reduced	
CC[C@H]1CN2CCc3cc(OC)c(OC)cc3[C@@H]2C[C@@H]1C[C@H]1NCCc2cc(OC)c(OC)cc21 [Emetine, emetine]	0.6208	18.96%	Protein				Mean score (MDA-MB-231 cells [1]; listed as emetine): high
CC[C@]1(O)C[C@H]2CN(CCc3c([nH]c4ccccc34)[C@@](C(=O)OC)(c3cc4c(cc3OC)N(C=O)[C@H]3[C@@](O)(C(=O)OC)[C@H](OC(C)=O)[C@]5(CC)C=CCN6CC[C@]43[C@@H]65)C2)C1 [Vincristine]	−0.9466	97.33%	Novel				
CC(=O)O[C@H]1C(=O)[C@@]2(C)[C@H]([C@H](OC(=O)c3ccccc3)[C@]3(O)C[C@H](OC(=O)[C@H](O)[C@@H](NC(=O)c4ccccc4)c4ccccc4)C(C)=C1C3(C)C)[C@]1(OC(C)=O)CO[C@@H]1C[C@@H]2O [Taxol]	−0.5052	75.26%	Novel				
CCC/C=C/C/C=C/C=C/C=N/NN=O [triacsin-C, triacsin C]				remained at a similar level compared with the control group	significant decreases	significant decreases	
TVB-3166				slightly decreased	significantly reduced	significantly reduced	
CC(C)C[C@H](NC(=O)[C@H](Cc1ccccc1)NC(=O)c1cnccn1)B(O)O [bortezomib]				more evidently decreased	reduced	reduced	
C[C@@H]1C[C@@H]([C@H](O)CC2CC(=O)NC(=O)C2)C(=O)[C@@H](C)C1 [cycloheximide]				much lower			
CO[C@H]1C[C@@H]2CC[C@@H](C)[C@@](O)(O2)C(=O)C(=O)N2CCCC[C@H]2C(=O)O[C@H]([C@H](C)C[C@@H]2CC[C@@H](OCCO)[C@H](OC)C2)CC(=O)[C@H](C)/C=C(\C)[C@@H](O)[C@@H](OC)C(=O)[C@H](C)C[C@H](C)/C=C/C=C/C=C/1C [everolimus]							half of the IC50 values (MDA-MB-231 cells [3]): 14500 nM
CS(=O)(=O)CCNCc1ccc(-c2ccc3ncnc(Nc4ccc(OCc5cccc(F)c5)c(Cl)c4)c3c2)o1 [lapatinib]							IC50 (MDA-MB-231 cells [3]; Homo sapiens, MDA-MB-231, cell viability): 2140 nM; half of the IC50 values (MDA-MB-231 cells [3]): 1120 nM
COc1cccc2c1C(=O)c1c(O)c3c(c(O)c1C2=O)C[C@@](O)(C(=O)CO)C[C@@H]3O[C@H]1C[C@H](N)[C@H](O)[C@H](C)O1 [doxorubicin, doxorubicin hydrochloride]				largely inhibited	largely inhibited	largely inhibited	
NC(=O)c1ccc(I)c([N+](=O)[O-])c1 [Iniparib, iniparib]	−0.9923	99.62%	Novel				Mean score (MDA-MB-231 cells [1]; listed as iniparib): quite negative
